The values that follow come from ChEMBL document CHEMBL1201862, “PubChem BioAssay data set” (2004).

In general, IC50 refers to the concentration at which inhibition is half-maximal.

In assay [1] the target is T1, Sentrin-specific protease 7 (Homo sapiens, UniProt Q9BQF6).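 Also: Luminescence-based dose-response confirmation of ultra-high-throughput screening hits, measuring inhibition of SENP7.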
T1 sequence (Q9BQF6 whole entry): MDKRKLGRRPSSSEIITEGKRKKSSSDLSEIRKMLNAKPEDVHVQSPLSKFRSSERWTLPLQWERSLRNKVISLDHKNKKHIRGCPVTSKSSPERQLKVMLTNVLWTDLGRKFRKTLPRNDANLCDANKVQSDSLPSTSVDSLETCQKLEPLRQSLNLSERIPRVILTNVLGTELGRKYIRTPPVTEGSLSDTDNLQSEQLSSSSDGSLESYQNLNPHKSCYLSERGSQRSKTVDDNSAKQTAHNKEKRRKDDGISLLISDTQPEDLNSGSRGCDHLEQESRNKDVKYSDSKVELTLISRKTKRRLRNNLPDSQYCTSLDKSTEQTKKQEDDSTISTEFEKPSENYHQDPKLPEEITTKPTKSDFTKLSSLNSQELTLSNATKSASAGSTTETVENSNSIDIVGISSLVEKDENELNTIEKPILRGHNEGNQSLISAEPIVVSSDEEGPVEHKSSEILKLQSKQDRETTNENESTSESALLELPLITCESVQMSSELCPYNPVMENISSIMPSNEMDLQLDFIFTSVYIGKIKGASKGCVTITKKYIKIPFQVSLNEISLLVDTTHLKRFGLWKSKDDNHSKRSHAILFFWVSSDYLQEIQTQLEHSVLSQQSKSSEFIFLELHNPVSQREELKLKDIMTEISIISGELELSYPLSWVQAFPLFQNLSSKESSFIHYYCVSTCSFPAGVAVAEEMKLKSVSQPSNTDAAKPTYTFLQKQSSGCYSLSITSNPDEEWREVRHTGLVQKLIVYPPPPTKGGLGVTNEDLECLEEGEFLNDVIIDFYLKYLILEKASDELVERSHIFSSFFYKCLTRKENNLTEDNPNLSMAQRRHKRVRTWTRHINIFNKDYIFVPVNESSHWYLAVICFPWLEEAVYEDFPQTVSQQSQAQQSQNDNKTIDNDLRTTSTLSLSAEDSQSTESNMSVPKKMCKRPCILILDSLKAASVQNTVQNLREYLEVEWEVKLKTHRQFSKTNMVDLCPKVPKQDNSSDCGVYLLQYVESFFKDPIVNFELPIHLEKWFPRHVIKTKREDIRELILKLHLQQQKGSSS
The format is functional.

Assay [2] has as its target T2, Sentrin-specific protease 6 (Homo sapiens, UniProt Q9GZR1).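 Also: Luminescence-based dose-response confirmatory assay of SENP6 inhibition, following up an ultra-high-throughput screen.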
T2 sequence (Q9GZR1 whole entry): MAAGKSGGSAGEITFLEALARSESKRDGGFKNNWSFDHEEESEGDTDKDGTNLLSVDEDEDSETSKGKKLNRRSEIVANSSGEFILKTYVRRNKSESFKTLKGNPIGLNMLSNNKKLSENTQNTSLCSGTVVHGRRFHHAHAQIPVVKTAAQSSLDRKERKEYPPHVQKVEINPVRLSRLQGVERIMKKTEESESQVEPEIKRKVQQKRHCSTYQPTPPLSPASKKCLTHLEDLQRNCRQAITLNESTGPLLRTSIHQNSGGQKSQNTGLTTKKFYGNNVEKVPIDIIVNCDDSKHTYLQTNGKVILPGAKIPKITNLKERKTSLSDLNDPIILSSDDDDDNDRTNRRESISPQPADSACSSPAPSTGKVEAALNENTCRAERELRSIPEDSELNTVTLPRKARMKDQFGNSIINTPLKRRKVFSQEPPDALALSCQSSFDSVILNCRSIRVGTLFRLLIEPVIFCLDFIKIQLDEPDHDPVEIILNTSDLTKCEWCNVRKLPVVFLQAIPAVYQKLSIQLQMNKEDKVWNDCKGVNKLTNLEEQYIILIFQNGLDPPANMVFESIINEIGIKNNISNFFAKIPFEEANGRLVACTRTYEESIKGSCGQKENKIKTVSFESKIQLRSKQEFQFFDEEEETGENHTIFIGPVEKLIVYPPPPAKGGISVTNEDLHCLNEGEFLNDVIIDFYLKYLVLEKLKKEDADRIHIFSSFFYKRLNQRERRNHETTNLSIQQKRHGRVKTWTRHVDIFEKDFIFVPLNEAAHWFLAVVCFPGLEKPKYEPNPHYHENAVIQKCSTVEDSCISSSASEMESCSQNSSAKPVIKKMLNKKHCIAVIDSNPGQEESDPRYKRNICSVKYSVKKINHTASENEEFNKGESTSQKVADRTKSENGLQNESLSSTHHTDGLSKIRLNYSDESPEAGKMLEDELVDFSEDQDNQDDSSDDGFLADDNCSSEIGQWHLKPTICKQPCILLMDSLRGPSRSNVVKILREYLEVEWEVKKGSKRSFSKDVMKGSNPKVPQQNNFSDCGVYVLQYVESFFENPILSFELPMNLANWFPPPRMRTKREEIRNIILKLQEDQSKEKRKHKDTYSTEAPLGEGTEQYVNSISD
It is filed as functional.

Active and inactive are the calls of the source. Rule as the data show it: actives have a measured IC50 and inactives only a lower limit.

In the case of `COc1ccc(-c2cc(-c3ccc(C)cc3)[nH]n2)c(O)c1`, the concentration for half-maximal inhibition (IC50) was 6.63 µM (active) in assay [1] and 19.7 µM (active) in assay [2].

Regarding `CCCCn1c(NC(=O)c2ccco2)c(C(=O)OCC)c2nc3ccccc3nc21`, the IC50 in assay [1] was 10.1 µM (active); in assay [2] it was 3.25 µM (active).

Take `O=C(Nc1ccc(C#Cc2ccccc2)cc1)C1CC1`: the IC50 in assay [1] is 3.38 µM (active); in assay [2], > 100 µM (inactive).

As for `Cc1ccc(NC2=C/C(=N/S(=O)(=O)c3cccs3)c3ccccc3C2=O)cc1`, the IC50 is 0.359 µM (active) in assay [1] and 0.186 µM (active) in assay [2].
